From PubChem BioAssay AID256 (DTP/NCI, 2004)
Several values for one entry are separate records, joined by “and”; a condition that tells them apart may be missing. Equal entries are not always repeated. Inconclusive results and toxic doses are left out. The calls were made as follows: active = survival T/C of 150% or more; inactive = T/C below 125% in these data.

Test system: CD2F1 mice, L1210 leukemia ip, survival T/C
Test: NCI In Vivo Anticancer Drug Screen. Data for tumor model L1210 Leukemia (intraperitoneal) in CD2F1 (CDF1) mice
Settings: endpoint: mean survival time, higher = longer survival
In short: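 Read-out first: treated-group measurement over vehicle-control measurement, expressed as a ratio. Animals bore a transplanted tumor line and were dosed with compound or vehicle.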

[1] = dose: 100.0 mg/kg/injection, schedule: Q01DX009 (ip), vehicle: saline with Tween-80
[2] = dose: 200.0 mg/kg/injection, schedule: Q01DX009 (ip), vehicle: saline with Tween-80
[3] = dose: 400.0 mg/kg/injection, schedule: Q01DX009 (ip), vehicle: saline with Tween-80
[4] = dose: 5.0 mg/kg/injection, schedule: Q04DX003 (ip), vehicle: saline with Tween-80
[5] = dose: 10.0 mg/kg/injection, schedule: Q04DX003 (ip), vehicle: saline with Tween-80
[6] = dose: 75.0 mg/kg/injection, schedule: Q01DX001 (ip), vehicle: saline
[7] = dose: 150.0 mg/kg/injection, schedule: Q01DX001 (ip), vehicle: saline
[8] = dose: 300.0 mg/kg/injection, schedule: Q01DX001 (ip), vehicle: saline
[9] = dose: 100.0 mg/kg/injection, schedule: Q04DX003 (ip), vehicle: saline with Tween-80
[10] = dose: 200.0 mg/kg/injection, schedule: Q04DX003 (ip), vehicle: saline with Tween-80
[11] = dose: 400.0 mg/kg/injection, schedule: Q04DX003 (ip), vehicle: saline with Tween-80
[12] = dose: 100.0 mg/kg/injection, schedule: Q04DX002 (ip), vehicle: saline with Tween-80
[13] = dose: 200.0 mg/kg/injection, schedule: Q04DX002 (ip), vehicle: saline with Tween-80
[14] = dose: 400.0 mg/kg/injection, schedule: Q04DX002 (ip), vehicle: saline with Tween-80

Measured: T/C

COC(=O)C1C2CC(=O)C(C2)C1C(=O)OC (stereo not drawn)
inactive: [1] 93 % of control | [2] 99 % of control | [3] 93 % of control

O=C1CCC2(C=C(Br)C(=O)C(Br)=C2)O1
inactive: dose: 5.0 mg/kg/injection, schedule: Q01DX009 (ip), vehicle: saline with Tween-80 98 % of control | [4] 103 % of control | [5] 105 % of control | dose: 20.0 mg/kg/injection, schedule: Q04DX003 (ip), vehicle: saline with Tween-80 101 % of control

O=[N+]([O-])c1ccc(O)c(CCl)c1
inactive: [6] 102 % of control | [7] 93 % of control | [8] 96 % of control

CSC(=O)NC(=O)c1ccccc1
inactive: [9] 100 % of control | [10] 103 % of control | [11] 105 % of control

CCCCCCCCCCCCNC(=O)C[N+](C)(C)Cc1ccc2c(c1)CCCC2
inactive: [4] 95 % of control | [5] 105 % of control

NC(N)=Nc1nc(N)nc(N)n1
inactive: dose: 3.13 mg/kg/injection, schedule: Q01DX009 (ip), vehicle: saline with Tween-80 104 % of control | dose: 6.25 mg/kg/injection, schedule: Q01DX009 (ip), vehicle: saline with Tween-80 107 % of control | dose: 12.5 mg/kg/injection, schedule: Q01DX009 (ip), vehicle: saline with Tween-80 104 % of control and 110 % of control

COC(=O)Nc1nc2ccc(C(=O)c3ccccc3)cc2[nH]1
inactive: dose: 2.0 mg/kg/injection, schedule: Q04DX003 (ip), vehicle: saline with Tween-80 94 % of control | dose: 4.0 mg/kg/injection, schedule: Q04DX003 (ip), vehicle: saline with Tween-80 94 % of control | dose: 8.0 mg/kg/injection, schedule: Q04DX003 (ip), vehicle: saline with Tween-80 91 % of control | dose: 16.0 mg/kg/injection, schedule: Q04DX003 (ip), vehicle: saline with Tween-80 100 % of control and 112 % of control

COC1/C=C\C=C(/C)C(=O)NC2=CC(=O)C=C(C2=O)C(OC)C(C)CC(OC)C(OC)C(C)/C=C(/C)C1OC(N)=O (stereo not drawn)
inactive: dose: 0.18 mg/kg/injection, schedule: Q01DX009 (ip), vehicle: Klucel (hydroxypropylcellulose) (HPC) 108 % of control | dose: 0.37 mg/kg/injection, schedule: Q01DX009 (ip), vehicle: Klucel (hydroxypropylcellulose) (HPC) 107 % of control | dose: 0.75 mg/kg/injection, schedule: Q01DX009 (ip), vehicle: Klucel (hydroxypropylcellulose) (HPC) 120 % of control and 98 % of control | dose: 1.5 mg/kg/injection, schedule: Q01DX009 (ip), vehicle: Klucel (hydroxypropylcellulose) (HPC) 93 % of control and 103 % of control | dose: 3.0 mg/kg/injection, schedule: Q01DX009 (ip), vehicle: Klucel (hydroxypropylcellulose) (HPC) 95 % of control and 105 % of control

CCCCCCCCCCCCSC(=S)S
inactive: [12] 87 % of control | [13] 91 % of control | [14] 91 % of control

O=C(Nc1ccccc1)OCCc1c2ccccc2nc2ccccc12
inactive: [12] 94 % of control | [13] 94 % of control | [14] 90 % of control and 97 % of control

Cc1cc2sc(C)[n+](CCCOS(=O)(=O)[O-])c2cc1C
inactive: [6] 104 % of control | [7] 104 % of control | [8] 96 % of control

Oc1ccc2c3c1OC1C(O)C=CC4C(C2)NCCC341 (stereo not drawn)
inactive: dose: 25.0 mg/kg/injection, schedule: Q04DX003 (ip), vehicle: DMSO 95 % of control | dose: 50.0 mg/kg/injection, schedule: Q04DX003 (ip), vehicle: DMSO 95 % of control | dose: 100.0 mg/kg/injection, schedule: Q04DX003 (ip), vehicle: DMSO 106 % of control

N#CC(CCN1CCCCC1)(c1ccccc1)c1ccccc1
inactive: dose: 100.0 mg/kg/injection, schedule: Q04DX003 (ip), vehicle: saline 97 % of control | dose: 200.0 mg/kg/injection, schedule: Q04DX003 (ip), vehicle: saline 102 % of control | dose: 400.0 mg/kg/injection, schedule: Q04DX003 (ip), vehicle: saline 97 % of control

COC(=O)CCC1c2[nH]c3ccccc3c2CCN1C (stereo not drawn)
inactive: [9] 93 % of control | [10] 102 % of control | [11] 102 % of control

O=C1NC(=O)C(C2CC2)(C2CC2)N1
inactive: [1] 95 % of control | [2] 94 % of control | [3] 96 % of control
